From US12097177B2, “Therapeutic method for cat with chronic kidney disease” (Toray Industries, Inc., priority 2021, dated 2024)
Read-outs that look alike come from different tables or passages of the source.

What was measured:
cats with CKD [1] = assay: Retrospective observation study: period before progression into IRIS stage 4, BPS therapy vs No BPS therapy (Kaplan-Meier); format: in vivo, cat; details: for 3-year stage progression-free rate: cats with CKD, twice daily
Description: To compare the periods before progression of feline CKD into stage 4 with BPS therapy and without BPS therapy, the following retrospective observation studies were performed. The studies were performed at Ichikawa General Hospital, Kariya Animal Hospital, Inc., that had adopted the electronic chart system for veterinary hospitals, Ahmics (trademark) (PetCommunications Co., Ltd.), and completely eliminated the use of paper charts before 2017. In this hospital, all-encompassing information concerning medical treatment such as test data, death records, and drug prescription records of all patient animals have been managed by the electronic chart system. Specifically, the data sets of 1,681 cats subjected to the serum creatinine test and the data sets of 1,399 cats subjected to the urinalysis from Apr. 1, 2017 to Dec. 10, 2020 were extracted. Among them, by excluding 951 cats without records, the data sets of 730 cats that were diagnosed to have CKD as a result of serum creatinine tests at least two times, urinalysis, and other clinical tests were extracted.
Based on the drug prescription records, cats were divided into two groups: a BPS therapy group consisting of 57 cats; and a BPS therapy-free group consisting of 77 cats, and the baseline characteristics and the periods before progression into stage 4 were compared and analyzed retrospectively. To the cats in the BPS therapy group, BPS drugs for veterinary use, RAPROS (trademark) (Toray Industries, Inc.), were administered while adjusting the amount of BPS to 14.1 to 52.4 μg/kg body weight/day and the median to 29.1 μg/kg body weight/day twice daily during or after morning and evening feeding occasions. […] Progression into stage 4 was examined by the method defined by the IRIS staging. Specifically, progression into stage 4 was determined based on serum creatinine or serum SDMA measured to be higher than 5.0 mg/dL or higher than 38 μg/dL, respectively, via two or more hospital visits. By designating progression into stage 4 as the outcome, the start date of treatment as the point of origin for the cats in the BPS therapy group, and the start date of observation as the point of origin for the cats in the No BPS therapy group, the periods (months) before the outcome was observed were recorded. In analysis, the 3-year stage progression-free rates (%) of the BPS therapy group and of the No BPS therapy group, the standard errors thereof, the 95% confidence intervals, and the comparison of the 3-year stage progression-free rates (%) between the groups were calculated. […] The average period (months) before progression into stage 4, the standard error thereof, the 95% confidence intervals, the medians and the standard errors thereof, the 95% confidence intervals, and the comparison of the average stage progression-free periods were calculated. Differences in the stage progression-free rates were assessed by the log rank test, the Cochran-Mantel-Haenszel test, by setting significant level at a two-tailed P-value of <0.05.
Based on the drug prescription records, cats were divided into two groups: a BPS therapy group consisting of 37 cats; and a BPS therapy-free group consisting of 332 cats, and the baseline characteristics and the periods before progression into stage 4 were compared and analyzed retrospectively. To the cats in the BPS therapy group, BPS drugs for veterinary use, RAPROS (trademark) (Toray Industries, Inc.), were administered while adjusting the amount of BPS to 18.5 to 42.3 μg/kg body weight/day and the median to 26.5 μg/kg body weight/day twice daily during or after morning and evening feeding occasions. Progression into stage 4 was examined by the method defined by the IRIS staging. Specifically, progression into stage 4 was determined based on serum creatinine or serum SDMA measured to be higher than 5.0 mg/dL or higher than 38 μg/dL, respectively, via two or more hospital visits. […]

cats with CKD [2] = details: 20 to 55 μg twice daily, 2 months to 3 years and 3 months; cited from earlier work
[3] = tested on: cats with naturally occurring CKD; details: cited from earlier work
cats with CKD [4] = details: 55 μg twice daily for at least 5 months, cited from earlier work
[5] = stage 2 (serum creatinine 1.6 to 2.8 mg/dL)
[6] = stage 3 (serum creatinine 2.9 to 5.0 mg/dL)
[7] = stage 3 (serum creatinine 2.9 to 5.0 mg/dL), Kaplan-Meier
[8] = 55 μg or 6 to 26.4 μg/kg, preferably twice daily for 30 days or longer (WO '949)
[9] = first study, 26 cats (BPS group 11)
[10] = later study, 29 cats (BPS group 15)

CC#CCC(C)[C@H](O)/C=C/[C@@H]1[C@H]2c3cccc(CCCC(=O)[O-])c3O[C@H]2C[C@H]1O.[Na+] (some centres unmarked) [BPS, Beraprost sodium]
3-year stage progression-free rate (cats with CKD [1]; serum creatinine 1.6 to 2.8 mg/dL (stage 2), BPS 18.5 to 42.3 μg/kg body weight/day): 74.7% | 3-year stage progression-free rate (cats with CKD [1]; serum creatinine 2.9 to 5.0 mg/dL (stage 3), BPS 14.1 to 52.4 μg/kg body weight/day): 32.7% | 3-year stage progression-free rate of BPS therapy group relative to No BPS therapy group (cats with CKD [1]; [5]): 0.83 times | average stage progression-free period of BPS therapy group relative to No BPS therapy group (cats with CKD [1]; [5]): 0.93 times | effect on progression into stage 4 (cats with CKD [1]; stage 2 (serum creatinine 1.6 to 2.8 mg/dL) before initiation of administration): no effects of BPS administration to inhibit progression into stage 4 were observed | average period before progression into stage 4 (cats with CKD [1]; stage 2 (serum creatinine 1.6 to 2.8 mg/dL), Kaplan-Meier): 38.0 months | 3-year stage progression-free rate of BPS therapy group relative to No BPS therapy group (cats with CKD [1]; [6]): 1.25 times | average stage progression-free period of BPS therapy group relative to No BPS therapy group (cats with CKD [1]; [6]): 1.49 times | effect on progression into stage 4 (cats with CKD [1]; stage 3 (serum creatinine 2.9 to 5.0 mg/dL) before initiation of administration): effects of BPS administration to inhibit progression into stage 4 were observed | average period before progression into stage 4 (cats with CKD [1]; [7]): 26.5 months | median period before progression into stage 4 (cats with CKD [1]; [7]): 31.6 months | clinical symptoms and kidney function (cats with CKD [2]): stabilized clinical symptoms and maintained kidney function | adverse side effects [3, 8]: without adverse side effects | kidney function marker values [3, 8]: inhibit elevation in kidney function marker values such as serum creatinine and BUN | tolerability and safety ([3]; 55 μg twice daily for 6 months): well-tolerated and safe | serum creatinine ([3]; 55 μg twice daily for 6 months, vs placebo): inhibited serum creatinine elevation observed in the placebo group | effect of improving the survival rate vs renin-angiotensin system inhibitor group (cats with CKD [4]; [9]): higher than those in the renin-angiotensin system inhibitor group | effect of lowering the risk of 10% body weight loss vs renin-angiotensin system inhibitor group (cats with CKD [4]; [9]): higher than those in the renin-angiotensin system inhibitor group | effect of improving the survival rate vs renin-angiotensin system inhibitor group (cats with CKD [4]; [10]): no effects of improving the survival rate were observed | effect of lowering the risk of 10% body weight loss vs renin-angiotensin system inhibitor group (cats with CKD [4]; [10]): effects of lowering the risk of 10% body weight loss were observed
